Source: the NIST ThermoML archive (doi:10.1016/j.jct.2019.04.009)
Numbers after ± are expanded uncertainties.

Experiment: mn = molality of the nth substance listed, in mol/kg
Conditions: Liquid, Vibrating tube method

Compound: NC(N)=O [urea] + OCCO
- mass density (288.15 K, 99.6 kPa, m1 = 0.0551): 1117.63 ± 0.12 kg/m3
- mass density (288.15 K, 99.6 kPa, m1 = 0.1487): 1118.67 ± 0.12 kg/m3
- mass density (288.15 K, 99.6 kPa, m1 = 0.3264): 1120.61 ± 0.13 kg/m3
- mass density (288.15 K, 99.6 kPa, m1 = 0.446): 1121.88 ± 0.13 kg/m3
- mass density (288.15 K, 99.6 kPa, m1 = 0.495): 1122.39 ± 0.13 kg/m3
- mass density (288.15 K, 99.6 kPa, m1 = 0.6616): 1124.11 ± 0.13 kg/m3
- mass density (288.15 K, 99.6 kPa, m1 = 0.8791): 1126.28 ± 0.13 kg/m3
- mass density (288.15 K, 99.6 kPa, m1 = 1.072): 1128.14 ± 0.13 kg/m3
- mass density (288.15 K, 99.6 kPa, m1 = 1.208): 1129.41 ± 0.13 kg/m3
- mass density (288.15 K, 99.6 kPa, m1 = 1.357): 1130.76 ± 0.13 kg/m3
- mass density (288.15 K, 99.6 kPa, m1 = 1.523): 1132.23 ± 0.13 kg/m3
- mass density (298.15 K, 99.6 kPa, m1 = 0.0551): 1110.69 ± 0.12 kg/m3
- mass density (298.15 K, 99.6 kPa, m1 = 0.1487): 1111.72 ± 0.12 kg/m3
- mass density (298.15 K, 99.6 kPa, m1 = 0.3264): 1113.63 ± 0.12 kg/m3
- mass density (298.15 K, 99.6 kPa, m1 = 0.446): 1114.89 ± 0.12 kg/m3
- mass density (298.15 K, 99.6 kPa, m1 = 0.495): 1115.41 ± 0.12 kg/m3
- mass density (298.15 K, 99.6 kPa, m1 = 0.6616): 1117.13 ± 0.12 kg/m3
- mass density (298.15 K, 99.6 kPa, m1 = 0.8791): 1119.33 ± 0.12 kg/m3
- mass density (298.15 K, 99.6 kPa, m1 = 1.072): 1121.24 ± 0.13 kg/m3
- mass density (298.15 K, 99.6 kPa, m1 = 1.208): 1122.55 ± 0.13 kg/m3
- mass density (298.15 K, 99.6 kPa, m1 = 1.357): 1123.96 ± 0.13 kg/m3
- mass density (298.15 K, 99.6 kPa, m1 = 1.523): 1125.51 ± 0.13 kg/m3
- mass density (308.15 K, 99.6 kPa, m1 = 0.0551): 1103.68 ± 0.12 kg/m3
- mass density (308.15 K, 99.6 kPa, m1 = 0.1487): 1104.7 ± 0.12 kg/m3
- mass density (308.15 K, 99.6 kPa, m1 = 0.3264): 1106.59 ± 0.12 kg/m3
- mass density (308.15 K, 99.6 kPa, m1 = 0.446): 1107.84 ± 0.12 kg/m3
- mass density (308.15 K, 99.6 kPa, m1 = 0.495): 1108.35 ± 0.12 kg/m3
- mass density (308.15 K, 99.6 kPa, m1 = 0.6616): 1110.06 ± 0.12 kg/m3
- mass density (308.15 K, 99.6 kPa, m1 = 0.8791): 1112.26 ± 0.12 kg/m3
- mass density (308.15 K, 99.6 kPa, m1 = 1.072): 1114.15 ± 0.12 kg/m3
- mass density (308.15 K, 99.6 kPa, m1 = 1.208): 1115.46 ± 0.12 kg/m3
- mass density (308.15 K, 99.6 kPa, m1 = 1.357): 1116.88 ± 0.12 kg/m3
- mass density (308.15 K, 99.6 kPa, m1 = 1.523): 1118.42 ± 0.12 kg/m3
- mass density (318.15 K, 99.6 kPa, m1 = 0.0551): 1096.6 ± 0.12 kg/m3
- mass density (318.15 K, 99.6 kPa, m1 = 0.1487): 1097.61 ± 0.12 kg/m3
- mass density (318.15 K, 99.6 kPa, m1 = 0.3264): 1099.51 ± 0.12 kg/m3
- mass density (318.15 K, 99.6 kPa, m1 = 0.446): 1100.77 ± 0.12 kg/m3
- mass density (318.15 K, 99.6 kPa, m1 = 0.495): 1101.28 ± 0.12 kg/m3
- mass density (318.15 K, 99.6 kPa, m1 = 0.6616): 1103 ± 0.12 kg/m3
- mass density (318.15 K, 99.6 kPa, m1 = 0.8791): 1105.19 ± 0.12 kg/m3
- mass density (318.15 K, 99.6 kPa, m1 = 1.072): 1107.09 ± 0.12 kg/m3
- mass density (318.15 K, 99.6 kPa, m1 = 1.208): 1108.4 ± 0.12 kg/m3
- mass density (318.15 K, 99.6 kPa, m1 = 1.357): 1109.83 ± 0.12 kg/m3
- mass density (318.15 K, 99.6 kPa, m1 = 1.523): 1111.4 ± 0.12 kg/m3
- mass density (328.15 K, 99.6 kPa, m1 = 0.0551): 1089.43 ± 0.12 kg/m3
- mass density (328.15 K, 99.6 kPa, m1 = 0.1487): 1090.44 ± 0.12 kg/m3
- mass density (328.15 K, 99.6 kPa, m1 = 0.3264): 1092.34 ± 0.12 kg/m3
- mass density (328.15 K, 99.6 kPa, m1 = 0.446): 1093.59 ± 0.12 kg/m3
- mass density (328.15 K, 99.6 kPa, m1 = 0.495): 1094.1 ± 0.12 kg/m3
- mass density (328.15 K, 99.6 kPa, m1 = 0.6616): 1095.82 ± 0.12 kg/m3
- mass density (328.15 K, 99.6 kPa, m1 = 0.8791): 1098.01 ± 0.12 kg/m3
- mass density (328.15 K, 99.6 kPa, m1 = 1.072): 1099.92 ± 0.12 kg/m3
- mass density (328.15 K, 99.6 kPa, m1 = 1.208): 1101.23 ± 0.12 kg/m3
- mass density (328.15 K, 99.6 kPa, m1 = 1.357): 1102.66 ± 0.12 kg/m3
- mass density (328.15 K, 99.6 kPa, m1 = 1.523): 1104.22 ± 0.12 kg/m3

Compound: NC(N)=O [urea] + O
- mass density (298.15 K, 100 kPa, m1 = 0.1001): 998.63 ± 0.11 kg/m3
- mass density (298.15 K, 100 kPa, m1 = 0.1999): 1000.2 ± 0.11 kg/m3
- mass density (298.15 K, 100 kPa, m1 = 0.3): 1001.75 ± 0.11 kg/m3
- mass density (298.15 K, 100 kPa, m1 = 0.4): 1003.29 ± 0.11 kg/m3
- mass density (298.15 K, 100 kPa, m1 = 0.5001): 1004.81 ± 0.11 kg/m3
